# The supplement of paper PMC10307832
# Columns and labels:
# Experiment in all cases: relative viability (nuclei count vs DMSO), 5 days (fraction); higher = more cells survive
# BAY61-3606 + Trametinib = compound: COC1=C(C=C(C=C1)C2=CC3=NC=CN3C(=N2)NC4=C(C=CC=N4)C(=O)N)OC [BAY61-3606] + CC(=O)Nc1cccc(-n2c(=O)n(C3CC3)c(=O)c3c(Nc4ccc(I)cc4F)n(C)c(=O)c(C)c32)c1 [Trametinib] (partner 0.02 µM)
# Outline: (§1)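 Medians of duplicate plates are given as relative viability. That measure is the nuclei count in treated wells divided by the count in vehicle wells. Counts were taken on 4× images of lung cancer cell lines in 1536-well plates, 5 days after pin-tool dosing the day after seeding with one drug alone or a fixed anchor-drug dose plus five library-drug doses (not always all listed) in √10 steps.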
# BAY61-3606 + Palbociclib = compound: COC1=C(C=C(C=C1)C2=CC3=NC=CN3C(=N2)NC4=C(C=CC=N4)C(=O)N)OC [BAY61-3606] + CC(=O)c1c(C)c2cnc(Nc3ccc(N4CCNCC4)cn3)nc2n(C2CCCC2)c1=O [Palbociclib] (partner 0.5 µM)
# Outline: as §1
# BAY61-3606 + Navitoclax = compound: COC1=C(C=C(C=C1)C2=CC3=NC=CN3C(=N2)NC4=C(C=CC=N4)C(=O)N)OC [BAY61-3606] + CC1(C)CCC(c2ccc(Cl)cc2)=C(CN2CCN(c3ccc(C(=O)NS(=O)(=O)c4ccc(N[C@H](CCN5CCOCC5)CSc5ccccc5)c(S(=O)(=O)C(F)(F)F)c4)cc3)CC2)C1 [Navitoclax] (partner 0.5 µM)
# Outline: as §1
# BAY61-3606 + Linsitinib = compound: COC1=C(C=C(C=C1)C2=CC3=NC=CN3C(=N2)NC4=C(C=CC=N4)C(=O)N)OC [BAY61-3606] + C[C@]1(O)C[C@@H](c2nc(-c3ccc4ccc(-c5ccccc5)nc4c3)c3c(N)nccn32)C1 [Linsitinib] (partner 1 µM)
# Outline: as §1
Cell Line,relative viability (BAY61-3606 + Trametinib; first compound 0.02 µM),relative viability (BAY61-3606 + Trametinib; first compound 0.06325 µM),relative viability (BAY61-3606 + Trametinib; first compound 0.2 µM),relative viability (BAY61-3606 + Trametinib; first compound 0.6325 µM),relative viability (BAY61-3606 + Trametinib; first compound 2 µM),relative viability (BAY61-3606 + Palbociclib; first compound 0.02 µM),relative viability (BAY61-3606 + Palbociclib; first compound 0.06325 µM),relative viability (BAY61-3606 + Palbociclib; first compound 0.2 µM),relative viability (BAY61-3606 + Palbociclib; first compound 0.6325 µM),relative viability (BAY61-3606 + Palbociclib; first compound 2 µM),relative viability (BAY61-3606 + Navitoclax; first compound 0.02 µM),relative viability (BAY61-3606 + Navitoclax; first compound 0.06325 µM),relative viability (BAY61-3606 + Navitoclax; first compound 0.2 µM),relative viability (BAY61-3606 + Navitoclax; first compound 0.6325 µM),relative viability (BAY61-3606 + Navitoclax; first compound 2 µM),relative viability (BAY61-3606 + Linsitinib; first compound 0.02 µM),relative viability (BAY61-3606 + Linsitinib; first compound 0.06325 µM),relative viability (BAY61-3606 + Linsitinib; first compound 0.2 µM),relative viability (BAY61-3606 + Linsitinib; first compound 0.6325 µM),relative viability (BAY61-3606 + Linsitinib; first compound 2 µM)
NCI-H2126,0.622,0.539,0.514,0.567,0.57,0.356,0.353,0.369,0.352,0.31,0.88,0.823,0.769,0.759,0.742,0.757,0.687,0.742,0.749,0.691
HCC-44,1.04,1.09,1,1.07,1.2,0.959,0.941,0.924,0.968,1.13,0.935,0.903,1.01,1.13,0.816,0.636,0.695,0.722,0.762,0.751
RERF-LC-KJ,0.868,0.846,0.901,0.866,0.676,1.03,1.2,1.03,1.18,0.924,0.759,0.9,0.975,0.83,0.876,0.844,0.918,0.852,0.886,0.807
LXF-289,0.694,0.673,0.722,0.752,0.766,0.533,0.587,0.62,0.677,0.665,0.887,1.05,0.952,0.981,1.01,0.906,1.02,0.948,1.05,0.569
NCI-H838,0.54,0.496,0.547,0.575,0.362,0.233,0.2,0.22,0.247,0.207,1.3,1.24,1.07,1.12,0.956,1.12,1,1.06,1.13,0.891
HCC-827,0.511,0.585,0.539,0.583,0.608,0.514,0.456,0.467,0.484,0.234,1,0.998,1.06,1.08,1.02,0.971,0.959,0.973,1.05,0.966
NCI-H1792,0.574,0.361,0.353,0.412,0.396,0.677,0.61,0.659,0.747,0.698,0.663,0.637,0.646,0.596,0.696,0.531,0.494,0.591,0.627,0.627
NCI-H460,0.153,0.173,0.134,0.117,0.104,0.171,0.126,0.256,0.257,0.086,1.27,1.28,1.06,1.1,0.756,1.03,0.77,0.752,0.822,0.189
NCI-H3122,0.235,0.24,0.246,0.242,0.249,0.159,0.185,0.226,0.231,0.189,0.975,0.962,1.05,1,0.987,1.08,1.08,0.974,0.924,0.918
NCI-H2347,0.287,0.332,0.285,0.296,0.244,0.444,0.41,0.449,0.452,0.436,0.802,0.789,0.859,0.936,0.754,1.03,0.97,0.978,1.03,0.898
NCI-H1944,0.469,0.392,0.405,0.369,0.299,0.344,0.313,0.31,0.338,0.213,1.12,1.1,1.01,1.02,1.04,1.31,1.17,1.1,1.13,1.27
EKVX,0.497,0.308,0.303,0.361,0.365,0.405,0.45,0.385,0.496,0.45,1.04,1.04,0.884,0.959,0.938,1.12,0.981,0.99,0.946,0.935
NCI-H1355,0.424,0.447,0.409,0.46,0.345,0.444,0.404,0.398,0.454,0.335,1.08,0.962,0.865,0.995,0.721,0.798,0.8,0.799,0.891,0.678
NCI-H2228,0.523,0.439,0.476,0.531,0.365,0.989,0.916,0.731,0.766,0.553,1.18,0.736,0.658,1.08,0.713,0.663,0.552,0.668,0.714,0.496
SK-MES-1,0.619,0.541,0.518,0.579,0.503,0.312,0.311,0.385,0.393,0.313,1.32,1.3,1.24,1.39,1.09,1,1.13,1.09,1.09,0.989
